Target: GluA1o-γ8 (GRIA1o-CACNG8 fusion construct; TARP γ8 dependent AMPA receptor) (Homo sapiens (Human), UniProt P42261+Q8WXS5)
Assay: Calcium flux assay (FLIPR), inhibition of glutamate response of GluA1o-γ8 channel
Type: cell-based
Settings: HEK293 cells stably expressing GRIA1o-CACNG8 fusion; 15 μM glutamate; negative log of the IC50 in molar
Excerpt: This assay was used to test compounds for their ability to inhibit TARP γ8 dependent AMPA receptor activity. The AMPA receptor is a non-selective cation channel activated by glutamate. Ionotropic glutamate receptors normally desensitize too rapidly to allow detectable calcium influx in a FLIPR assay (Strange et al. (2006). “Functional characterisation of homomeric ionotropic glutamate receptors GluR1-GluR6 in a fluorescence-based high throughput screening assay.” Comb Chem High Throughput Screen 9(2): 147-158). But, this desensitization is incomplete, and a substantial steady-state current remains in the sustained presence of glutamate (Cho et al. (2007). “Two families of TARP isoforms that have distinct effects on the kinetic properties of AMPA receptors and synaptic currents.” Neuron 55(6): 890-904). An in vitro assay was used to determine the potency of test compounds as inhibitors of the glutamate response of the channel formed by GluA1o-γ8. To ensure a 1:1 stoichiometry of GluA1o and γ8 subunits in the expressed channel, a fusion of the cDNAs for GRIA1o and CACNG8 was used. Following Shi et al (2009) “The stoichiometry of AMPA receptors and TARPs varies by neuronal cell type.” Neuron 62(5): 633-640), the C-terminus of the cDNA for GRIA1o was fused to the N-terminus of the cDNA for γ8. The linker sequence was QQQQQQQQQQEFAT. Channels expressed with this construct appear to have similar properties to channels formed by co-expression of GRIA1o with an excess of CACNG8 (Shi et al. 2009). A clonal cell line in HEK293 cells stably expressing this construct, with a geneticin selection marker, was generated for use in this assay.
Cell expressing the GRIA1o-CACNG8 fusion construct were grown in a monolayer in 96- or 384-well microtiter plates. They were washed with assay buffer (135 mM NaCl, 4 mM KCl, 3 mM CaCl2, 1 mM MgCl2, 5 mM glucose, 10 mM HEPES, pH 7.4, 300 mOs) using a Biotek EL405 plate washer. The cells were then loaded with a calcium-sensitive dye (Calcium-5 or Calcium-6, Molecular Devices) and the test compounds at a range of concentrations. Calcium flux following the addition of 15 μM glutamate was monitored using a Molecular Devices FLIPR Tetra. The fluorescence in each well was normalized to the fluorescence of negative and positive control wells. The negative control wells had no added compounds, and the positive control wells had been incubated with 10 μM CP465022 (a non-subtype-selective AMPA receptor antagonist) (Lazzaro et al. (2002). “Functional characterization of CP-465,022, a selective, noncompetitive AMPA receptor antagonist.” Neuropharmacology 42(2): 143-153). The responses to glutamate as functions of the test compound concentrations were fitted to a four-parameter logistic function. The fitted parameter corresponding to the midpoint was taken to be the potency of inhibition of the compound. The data in Table 3 below illustrates the observed potentcy for the compounds described herein. pIC50 refers to the negative log of the IC50 in molar.

Sequence of GluA1o-γ8 (GRIA1o-CACNG8 fusion construct; TARP γ8 dependent AMPA receptor) (P42261 other isoform, or with tags, fused parts or gaps): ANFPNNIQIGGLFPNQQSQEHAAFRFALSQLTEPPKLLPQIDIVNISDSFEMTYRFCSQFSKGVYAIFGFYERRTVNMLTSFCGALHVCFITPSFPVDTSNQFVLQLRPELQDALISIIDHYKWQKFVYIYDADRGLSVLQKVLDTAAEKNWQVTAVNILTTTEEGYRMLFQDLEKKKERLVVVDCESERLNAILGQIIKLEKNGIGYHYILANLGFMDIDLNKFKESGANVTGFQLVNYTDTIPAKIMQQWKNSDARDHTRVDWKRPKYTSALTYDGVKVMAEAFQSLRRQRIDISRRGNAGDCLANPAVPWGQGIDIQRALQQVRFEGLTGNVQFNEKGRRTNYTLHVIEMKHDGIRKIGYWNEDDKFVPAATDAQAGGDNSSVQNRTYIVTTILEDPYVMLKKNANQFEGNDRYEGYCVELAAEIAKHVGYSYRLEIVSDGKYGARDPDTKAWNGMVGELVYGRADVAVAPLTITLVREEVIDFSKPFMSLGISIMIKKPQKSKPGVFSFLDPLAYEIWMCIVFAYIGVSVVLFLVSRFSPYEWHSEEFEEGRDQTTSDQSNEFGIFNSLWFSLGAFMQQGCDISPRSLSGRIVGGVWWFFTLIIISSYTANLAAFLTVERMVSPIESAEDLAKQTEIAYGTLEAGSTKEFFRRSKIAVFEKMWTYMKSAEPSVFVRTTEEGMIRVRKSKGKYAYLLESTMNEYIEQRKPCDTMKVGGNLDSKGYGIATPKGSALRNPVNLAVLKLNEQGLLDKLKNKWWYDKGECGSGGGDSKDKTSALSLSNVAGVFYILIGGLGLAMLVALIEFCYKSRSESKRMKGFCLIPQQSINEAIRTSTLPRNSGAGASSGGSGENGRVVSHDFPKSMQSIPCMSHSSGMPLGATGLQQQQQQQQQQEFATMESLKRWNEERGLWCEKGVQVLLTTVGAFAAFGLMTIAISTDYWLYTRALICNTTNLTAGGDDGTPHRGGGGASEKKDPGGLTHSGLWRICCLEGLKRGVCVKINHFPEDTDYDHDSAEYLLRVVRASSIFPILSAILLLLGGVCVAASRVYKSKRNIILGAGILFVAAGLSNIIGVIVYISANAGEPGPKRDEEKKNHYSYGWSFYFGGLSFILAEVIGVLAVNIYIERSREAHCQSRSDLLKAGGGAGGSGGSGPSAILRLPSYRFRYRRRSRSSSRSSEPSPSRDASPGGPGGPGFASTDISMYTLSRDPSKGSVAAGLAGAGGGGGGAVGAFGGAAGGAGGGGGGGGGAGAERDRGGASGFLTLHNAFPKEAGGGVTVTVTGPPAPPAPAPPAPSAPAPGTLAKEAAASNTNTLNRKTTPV

Row | SMILES | pIC50
1 | CCn1nc2ccc(C(F)(F)F)nc2c1-c1cc(Cl)c2c(c1)CC(=O)N2 [Example 18, 7-Chloro-5-(2-ethyl-5-(trifluoromethyl)-2H-pyrazolo[4,3-b]pyridin-3-yl)indolin-2-one] | 8.6
2 | Cc1cc(-c2c3nc(C(F)(F)F)ccc3nn2C)cc2cn[nH]c12 [Example 15, 2-Methyl-3-(7-methyl-1H-indazol-5-yl)-5-(trifluoromethyl)-2H-pyrazolo[4,3-b]pyridine] | 9.0
3 | FC(F)(F)c1ccc2nn(-c3ccccn3)c(-c3ccc4[nH]ncc4c3)c2n1 [Example 14, 3-(1H-Indazol-5-yl)-2-(pyridin-2-yl)-5-(trifluoromethyl)-2H-pyrazolo[4,3-b]pyridine] | 6.9
4 | Cc1cc(-c2c3nc(C(F)(F)F)ccc3nn2C(C)C)cc2cn[nH]c12 [Example 23, 2-Isopropyl-3-(7-methyl-1H-indazol-5-yl)-5-(trifluoromethyl)-2H-pyrazolo[4,3-b]pyridine] | 9.6
5 | O=c1[nH]c2ccc(-c3c4nc(C(F)(F)F)ccc4nn3C3CCCC3)cc2[nH]1 [Example 7, 5-(2-Cyclopentyl-5-(trifluoromethyl)-2H-pyrazolo[4,3-b]pyridin-3-yl)-1,3-dihydro-2H-benzo[d]imidazol-2-one] | 7.8
